Laboratory results: PMC7136958, “Targeting the pregnane X receptor using microbial metabolite mimicry” (EMBO Molecular Medicine, 2020)
Several values for one entry are separate records, joined by “and”; a condition that tells them apart may be missing. Identical values can stand only once.

Key:
[1] = test system: rats; design: method as in Thermo Fisher Scientific Safety Sheet data; details: oral in rats; ref Thermo Fisher Scientific Safety Sheet data; cited from earlier work
[2] = test system: PXR occupancy of CYP3A4 and MDR1 promoter; test: Chromatin immunoprecipitation (ChIP) in PXR-transfected LS174T cells; details: 10 μM; relative to DMSO = 1; each column a repeat experiment (Fig 1d)
Method: LS174T cells were transfected with pSG5‐PXR (2 μg/plate/1 × 10^7 cells). […] Briefly, cells were chemically cross‐linked with formaldehyde in culture media for 15 min at room temperature. […] Cells were rinsed twice with cold PBS (phosphate‐buffered saline) (pH 7.5) and scraped in PBS supplemented with PIC (protease inhibitor cocktail).
Cell pellets were collected and immediately resuspended in immunoprecipitation (IP) buffer (150 mM NaCl (sodium chloride), 50 mM Tris–HCl at pH 7.5, 5 mM EDTA (ethylenediaminetetraacetic acid), 0.5% NP‐40, 1% Triton X‐100). The nuclei were centrifuged at 12,000 × g for 1 min and resuspended in fresh IP buffer. Chromatin was sheared by sonication to an average size of 0.2‐0.9 kb. Lysates were cleared by centrifugation at 12,000 × g for 10 min. […] 10% (wt/vol) Chelex 100 was added to the beads followed by boiling of the suspension and centrifugation at 12,000 × g for 1 min to obtain chromatin.
Purified chromatin DNA was used to perform RT–qPCR. […] Data were analyzed using SDS 2.2.1 program (ABI Biotechnology).

[3] = test system: IL-8 mRNA; test: TNF-α-induced IL-8 mRNA in human colonic enteroids (Calgary Protocol); assay type: cell-based; details: 10 μM, pair-wise vs DMSO
Method: Samples were immediately processed to yield isolated colonic crypts as previously described (Fernando et al, 2017). Isolated colonic crypts were embedded in Matrigel® (Corning) and cultured in Intesticult^tm Organoid Growth Media. Human organoids were pretreated for 6 h with either FKK5, FKK6, FKK9, or vehicle (DMSO), then stimulated with human recombinant TNF‐alpha in the presence of either treatment for an additional 12 h. Organoids were washed in PBS, disrupted in Tri Reagent® (Sigma, Oakville, ON, CAN), and frozen at −80°C. After thawing, chloroform was added, samples were centrifuged for 15 min, and the resulting aqueous phase was then added to equal volumes of 70% ethanol and further processed using the RNeasy mini kit (Qiagen). cDNA was synthesized using the QuantiTect RT kit (Qiagen) according to the manufacturer's protocol. Resulting cDNA was used as a template for quantitative real‐time PCR using Perfecta SYBR Green FastMix with ROX (QuantaBio). PCR and analysis were performed using a StepOne PCR System (Applied Biosystems). Gene expression was calculated relative to β‐actin expression and expressed as fold change of control. The primers used were as follows: Human®‐Actin (NM_001101), Human CYP3A4 (NM_001202855), and Human ABCB1 (NM_000927).

[4] = biological target: T1, PXR (Homo sapiens, UniProt O75469); test: PXR reporter (p3A4-luc luciferase) assay in LS180 cells transiently transfected with wild-type PXR; details: for FOLD INDUCTION of PXR reporter luciferase activity: 24 h, over UT
T1 sequence (O75469 1-434): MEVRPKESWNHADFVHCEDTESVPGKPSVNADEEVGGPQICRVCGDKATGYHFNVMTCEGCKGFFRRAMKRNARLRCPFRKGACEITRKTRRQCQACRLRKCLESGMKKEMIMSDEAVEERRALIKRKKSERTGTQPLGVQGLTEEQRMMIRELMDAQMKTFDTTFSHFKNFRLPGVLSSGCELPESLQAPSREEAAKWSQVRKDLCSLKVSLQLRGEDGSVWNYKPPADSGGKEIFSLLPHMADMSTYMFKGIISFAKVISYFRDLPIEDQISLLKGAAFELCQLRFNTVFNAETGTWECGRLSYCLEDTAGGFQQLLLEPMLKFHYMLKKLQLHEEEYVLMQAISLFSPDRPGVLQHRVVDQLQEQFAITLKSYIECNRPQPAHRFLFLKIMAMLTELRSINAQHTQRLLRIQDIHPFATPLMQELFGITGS
Method: Incubations were performed in four technical replicates. After the treatments, cells were lysed and luciferase activity was measured on Tecan Infinite M200 Pro plate reader (Schoeller Instruments, Prague, Czech Republic). The data are expressed as fold induction ± SD of luciferase activity over the control cells (agonistic mode—in the absence of a model ligand) or as a percentage of maximal activation ± SD (antagonistic mode—in the presence of a model ligand). […] For all the transfection experiments, specifically multiplexed transfections, the control wells were mock‐transfected ([…]). However, to exclude non‐specific binding of PXR (or other factors) upstream of the luciferase gene within non‐PXR‐binding elements, we performed pilot experiments in different cell passages (P11, P14, and P17) of LS174T cells using a mock luciferase plasmid (luciferase not containing an upstream PXR‐binding element of the CYP3A4 promoter).

[5] = biological target: T2, AhR (Homo sapiens, UniProt P35869); test: AhR reporter assay, HepG2 cells stably expressing pCYP1A1 luciferase (AZ-AHR); assay type: cell-based; details: for FOLD INDUCTION (AZ-AHR luciferase): AZ-AHR cells, fold vs DMSO
T2 construct: endogenous in cells; host or cells: AZ-AHR (HepG2)
T2 sequence (P35869 11-848): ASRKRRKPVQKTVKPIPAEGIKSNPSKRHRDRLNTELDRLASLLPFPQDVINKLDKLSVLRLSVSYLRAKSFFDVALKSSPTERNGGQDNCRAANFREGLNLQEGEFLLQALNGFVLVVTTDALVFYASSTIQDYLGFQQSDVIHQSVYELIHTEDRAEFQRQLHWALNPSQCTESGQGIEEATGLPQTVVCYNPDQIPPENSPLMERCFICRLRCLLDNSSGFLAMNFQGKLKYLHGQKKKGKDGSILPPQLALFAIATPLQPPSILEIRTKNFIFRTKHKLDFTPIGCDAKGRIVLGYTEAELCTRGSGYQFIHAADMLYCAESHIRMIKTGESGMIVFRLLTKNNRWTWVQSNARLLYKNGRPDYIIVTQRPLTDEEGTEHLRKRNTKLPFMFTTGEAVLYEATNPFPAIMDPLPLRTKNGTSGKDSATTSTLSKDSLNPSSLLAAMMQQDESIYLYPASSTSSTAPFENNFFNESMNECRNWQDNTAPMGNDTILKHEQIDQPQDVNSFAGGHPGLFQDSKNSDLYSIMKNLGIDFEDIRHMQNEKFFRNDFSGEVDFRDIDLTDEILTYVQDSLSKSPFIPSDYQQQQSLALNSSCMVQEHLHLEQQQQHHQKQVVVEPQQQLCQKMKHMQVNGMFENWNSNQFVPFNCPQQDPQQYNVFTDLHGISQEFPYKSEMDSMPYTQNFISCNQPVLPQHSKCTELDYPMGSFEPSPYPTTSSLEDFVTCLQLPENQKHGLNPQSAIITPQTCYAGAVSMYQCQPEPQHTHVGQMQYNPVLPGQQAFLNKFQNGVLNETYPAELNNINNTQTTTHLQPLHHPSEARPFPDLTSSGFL
Method: Incubations were performed in four technical replicates.

[6] = biological target: T1, PXR; test: Ligand efficiency metric (LEM) analysis; design: expressed in transfected cells; host or cells: LS180; details: NSEI-nBEI plane, from PXR reporter Emax
Source text: Ligand efficiency metric (LEM) analysis for FKK ligand efficiency. The ligand efficiency metrics (LEMs) of compounds FKK1 to 10 and FKK999 as a reference compound, have been analyzed by using a web tool named AtlasCBS which represents LEMs as variables for a Cartesian mapping of chemico-biological space (CBS). In particular, Cartesian planes combine three critical variables in drug discovery (affinity, size, and polarity) into easily interpretable ‘efficiency planes’ useful to guide a drug discovery process. In the Cartesian plane, each target:ligand pair appears as a point whose coordinates are given by pairs of values derived from the affinity of the ligand toward the target (Ki or equivalent) in relation to its size (MW or number of non-hydrogen atoms NHA), and its polarity (expressed as Polar Surface Area, PSA, or number of polar atoms, NPOL = count of N + O). The first one represents a size-related LEM and the second a polarity-related LEM. Consistently, compounds that correspond to marketed drugs typically occupy the upper right quadrant of the plots (‘Nort h-East’ direction, NE), where both the efficiency -pe r-size and efficiency -per-polarity are optimized 1,2.
Our results are represented in the efficiency plane NS EI-nBEI where:
NSEI = –log Ki/NPOL (N, O) = pKi/NPOL (N, O)
As a measure of activity of the above compounds, the reciprocal of the percentage efficacy values (1/Efficacy [%]) obtained in the PXR-dependent luciferase activity test (Emax values from Fig. 1) were used in lieu of the affinity constants (Ki in the above equations). FKK4 would appear as the most efficient compound since it is placed in the NE panel (GL, unpublished observations). However, this congener might suffer from metabolic liability with its N-protecting group possibly generating toxic aldehydes by oxidative cleavage in vivo. Unambiguously, the two most efficient compounds besides FKK4 are FKK5 and FKK6 which were therefore considered suitable lead compounds, as al so

Structure (SMILES) | aver (mean luciferase signal of H1-H4) ([4]; 1 nM) | FOLD INDUCTION of PXR reporter luciferase activity ([4]; 1 nM) [fold] | aver (mean luciferase signal of H1-H4) ([4]; 10 nM) | FOLD INDUCTION of PXR reporter luciferase activity ([4]; 10 nM) [fold] | aver (mean luciferase signal of H1-H4) ([4]; 100 nM) | FOLD INDUCTION of PXR reporter luciferase activity ([4]; 100 nM) [fold] | aver (mean luciferase signal of H1-H4) ([4]; 1 uM) | FOLD INDUCTION of PXR reporter luciferase activity ([4]; 1 uM) [fold] | aver (mean luciferase signal of H1-H4) ([4]; 10 uM) | FOLD INDUCTION of PXR reporter luciferase activity ([4]; 10 uM) [fold] | aver (mean luciferase signal of H1-H4) ([4]; 25 uM) | FOLD INDUCTION of PXR reporter luciferase activity ([4]; 25 uM) [fold] | FOLD INDUCTION (AZ-AHR luciferase) ([5]; 1 nM) [fold] | FOLD INDUCTION (AZ-AHR luciferase) ([5]; 10 nM) [fold] | FOLD INDUCTION (AZ-AHR luciferase) ([5]; 100 nM) [fold] | FOLD INDUCTION (AZ-AHR luciferase) ([5]; 1µM) [fold] | FOLD INDUCTION (AZ-AHR luciferase) ([5]; 10 µM) [fold] | further results
c1ccc2[nH]ccc2c1 [indole] |  |  |  |  |  |  |  |  |  |  |  |  |  |  |  |  |  | LD50 [1]: ~ 1 g/kg
CCOCn1c(C(O)(Cc2cc3ccccc3[nH]2)c2ccncc2)cc2ccccc21 (racemic) [FKK9] | 4233.7 | 1.1 | 4676.8 | 1.2 | 5944.0 | 1.6 | 19145.3 | 5.0 | 98175.8 | 25.8 | 68593.5 | 18.0 | 0.6 | 0.4 | 1.3 | 15.9 | 584.9 | CYP3A4 Fold Expression (2-ΔΔCt) [2]: 0.943 and 0.9893 and 1.172 and 1.777; TNF-α-induced IL-8 mRNA levels [3]: did not show significant effects; AhR activation ([5]; 10 μM): > 100 fold
CC#CC(O)(c1ccncc1)c1cc2ccccc2n1COCC (stereo not shown) [FKK4] | 4365.5 | 1.4 | 4279.3 | 1.3 | 5499.3 | 1.7 | 21392.8 | 6.7 | 102793.8 | 32.2 | 122639.5 | 38.4 | 0.8 | 0.644 | 0.8 | 1.2 | 7.1 | LEM analysis prediction [6]: efficient agonist; AhR activation (in words) [5]: variable degrees of dose‐dependent AhR activation profiles
